This is an account of results in patent US20220324835A1 (Nurix Therapeutics, Inc., priority 2018, published 2022).

For orientation: IC50 means the concentration at which inhibition is half-maximal.

For assay [1], the target named is T1, Cbl-b (Homo sapiens, UniProt Q13191). Nature of the assay: Cbl-b inhibition assay (Cbl-b activity assay, FRET, Biological Example 1; 100 mM NaCl, 60 nM Src kinase). To be noted: upper bound stated in text lists; read-out: IC50 values in the Cbl-b inhibition assay of Biological Example 1. It is filed as biochemical. The essentials:
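Steps: Src kinase phosphorylates N-terminal biotinylated Avi-tagged Cbl-b; phosphorylated Cbl-b binds Bodipy-fluorescein ubiquitin-loaded UbcH5B; streptavidin-terbium on Cbl-b sits close to the fluorescein label, producing FRET. Inhibitors block UbcH5B-Ub binding.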

The target in assay [2] is T1, Cbl-b. Nature of the assay: Cbl-b activity assay (Cbl-b inhibition assay), TR-FRET of Cbl-b interaction with UbcH5B-Ub. To be noted: assay buffer with 100 mM NaCl, 60 nM Src kinase; read-out: Cbl-b activity IC50. It is filed as biochemical. The essentials:
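TR-FRET readout of Cbl-b binding to Bodipy-fluorescein N-terminally labeled Ub conjugated to UbcH5B C85K, measured with compound present. After compound incubation, 60 nM Src kinase with 1 mM ATP and 5 mM MgCl2 (final) was added for 1.5 h, then a further 1 h incubation; asterisked values used 50 mM NaCl buffer and 30 nM Src.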

Bounds are passed on as bounds.

T1 sequence (Q13191 36-427): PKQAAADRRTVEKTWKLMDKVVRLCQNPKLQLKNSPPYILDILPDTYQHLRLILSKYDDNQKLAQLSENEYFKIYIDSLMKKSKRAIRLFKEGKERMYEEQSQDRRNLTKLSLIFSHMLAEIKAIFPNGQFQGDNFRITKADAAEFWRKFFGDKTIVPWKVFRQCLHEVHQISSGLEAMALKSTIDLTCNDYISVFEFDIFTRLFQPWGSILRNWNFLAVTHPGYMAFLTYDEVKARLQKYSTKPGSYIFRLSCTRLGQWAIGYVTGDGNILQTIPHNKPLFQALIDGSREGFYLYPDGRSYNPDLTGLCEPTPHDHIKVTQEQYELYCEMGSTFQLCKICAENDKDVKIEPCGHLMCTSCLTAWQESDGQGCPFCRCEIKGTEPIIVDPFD

As to `Cn1cnnc1CC1(c2cccc(N3Cc4c(cc(CN5CCc6cnccc6C5)cc4C(F)(F)F)C3=O)c2)COC1` [Example 648, 6-((3,4-dihydro-2,6-naphthyridin-2(1H)-yl)methyl)-2-(3-(3-((4-methyl-4H-1,2,4-triazol-3-yl)methyl)oxetan-3-yl)phenyl)-4-(trifluoromethyl)isoindolin-1-one], the IC50 was no more than 0.1 µM in assay [1] and less than 0.1 µM in assay [2].
The matching figures for `Cn1cnnc1CC1(c2cccc(N3Cc4c(cc(CN5Cc6cccc(Cl)c6C5)cc4C(F)(F)F)C3=O)c2)COC1` [Example 657, 6-((4-chloroisoindolin-2-yl)methyl)-2-(3-(3-((4-methyl-4H-1,2,4-triazol-3-yl)methyl)oxetan-3-yl)phenyl)-4-(trifluoromethyl)isoindolin-1-one]: no more than 0.1 µM and less than 0.1 µM.
Consider `Cn1cnnc1CC1(c2cccc(N3Cc4c(cc(CN5Cc6cccc(C#N)c6C5)cc4C(F)(F)F)C3=O)c2)COC1` [Example 658, 2-((2-(3-(3-((4-methyl-4H-1,2,4-triazol-3-yl)methyl)oxetan-3-yl)phenyl)-3-oxo-7-(trifluoromethyl)isoindolin-5-yl)methyl)isoindoline-4-carbonitrile], for which the IC50 in assay [1] was no more than 0.1 µM; in assay [2], less than 0.1 µM.
For the molecule `Cn1cnnc1CC1(c2cccc(N3Cc4c(cc(CN5Cc6ccc(Cl)cc6C5)cc4C(F)(F)F)C3=O)c2)COC1` [Example 659, 6-((5-chloroisoindolin-2-yl)methyl)-2-(3-(3-((4-methyl-4H-1,2,4-triazol-3-yl)methyl)oxetan-3-yl)phenyl)-4-(trifluoromethyl)isoindolin-1-one], the values for the IC50 in assay [1] and in assay [2] were no more than 0.1 µM and less than 0.1 µM, respectively.
For `COc1ccc2c(c1)CN(Cc1cc3c(c(C(F)(F)F)c1)CN(c1cccc(C4(Cc5nncn5C)COC4)c1)C3=O)CC2` [Example 661, 6-((7-methoxy-3,4-dihydroisoquinolin-2(1H)-yl)methyl)-2-(3-(3-((4-methyl-4H-1,2,4-triazol-3-yl)methyl)oxetan-3-yl)phenyl)-4-(trifluoromethyl)isoindolin-1-one], the figures for the IC50 in assay [1] and in assay [2] were no more than 0.1 µM and less than 0.1 µM, respectively.
The matching figures for `Cn1cnnc1CC1(c2cccc(N3Cc4c(cc(CN5CC[C@@H](c6ccccc6)C5)cc4C(F)(F)F)C3=O)c2)COC1` [Example 662b, (S)-2-(3-(3-((4-methyl-4H-1,2,4-triazol-3-yl)methyl)oxetan-3-yl)phenyl)-6-((3-phenylpyrrolidin-1-yl)methyl)-4-(trifluoromethyl)isoindolin-1-one]: no more than 0.1 µM and less than 0.1 µM.
For `C[C@@H]1CN(Cc2cc3c(c(C(F)(F)F)c2)CN(c2cccc(C4(Cc5nncn5C)COC4)c2)C3=O)C[C@H](C)O1` [Example 664, 6-(((cis)-2,6-dimethylmorpholino)methyl)-2-(3-(3-((4-methyl-4H-1,2,4-triazol-3-yl)methyl)oxetan-3-yl)phenyl)-4-(trifluoromethyl)isoindolin-1-one], the IC50 in assay [1] is no more than 0.1 µM; in assay [2] it was less than 0.1 µM.
Take `Cn1cnnc1CC1(c2cccc(N3Cc4c(cc(CN5CCOC(C)(C)C5)cc4C(F)(F)F)C3=O)c2)COC1` [Example 665, 6-((2,2-dimethylmorpholino)methyl)-2-(3-(3-((4-methyl-4H-1,2,4-triazol-3-yl)methyl)oxetan-3-yl)phenyl)-4-(trifluoromethyl)isoindolin-1-one]: the IC50 in assay [1] is no more than 0.1 µM; in assay [2], less than 0.1 µM.
In the case of `Cn1cnnc1CC1(c2cccc(N3Cc4c(cc(CN5CCOC6(CC6)C5)cc4C(F)(F)F)C3=O)c2)COC1` [Example 666, 6-((4-oxa-7-azaspiro[2.5]octan-7-yl)methyl)-2-(3-(3-((4-methyl-4H-1,2,4-triazol-3-yl)methyl)oxetan-3-yl)phenyl)-4-(trifluoromethyl)isoindolin-1-one], the values for the IC50 in assay [1] and in assay [2] were no more than 0.1 µM and less than 0.1 µM, respectively.
The matching figures for `COC[C@@H]1CN(Cc2cc3c(c(C(F)(F)F)c2)CN(c2cccc(C4(Cc5nncn5C)COC4)c2)C3=O)CCO1` [Example 667, (S)-6-((2-(methoxymethyl)morpholino)methyl)-2-(3-(3-((4-methyl-4H-1,2,4-triazol-3-yl)methyl)oxetan-3-yl)phenyl)-4-(trifluoromethyl)isoindolin-1-one]: no more than 0.1 µM and less than 0.1 µM.
The matching figures for `CC(c1cc2c(c(C(F)(F)F)c1)CN(c1cccc(C3(C(F)(F)c4nncn4C)COC3)c1)C2=O)N1CC[C@H](F)C1` (stereo partly drawn) [Example 678, 2-(3-(3-(difluoro(4-methyl-4H-1,2,4-triazol-3-yl)methyl)oxetan-3-yl)phenyl)-6-(l-((S)-3-fluoropyrrolidin-1-yl)ethyl)-4-(trifluoromethyl)isoindolin-1-one]: no more than 0.1 µM and less than 0.1 µM.
The matching figures for `C[C@H](Cc1nncn1C)c1cc(C2=CCOCC2)nc(N2Cc3c(cccc3C(F)(F)F)C2=O)c1` [Example 685, (R)-2-(6-(3,6-dihydro-2H-pyran-4-yl)-4-(1-(4-methyl-4H-1,2,4-triazol-3-yl)propan-2-yl)pyridin-2-yl)-4-(trifluoromethyl)isoindolin-1-one]: no more than 1 µM and 0.301 to 1 µM.
`CC(c1nncn1C)C1(c2cccc(N3Cc4c(cc(CN5CCC6(CC6)C5)cc4C(F)(F)F)C3=O)c2)COC1` (stereo not shown) [Example 701, 6-((5-azaspiro[2.4]heptan-5-yl)methyl)-2-(3-(3-(1-(4-methyl-4H-1,2,4-triazol-3-yl)ethyl)oxetan-3-yl)phenyl)-4-(trifluoromethyl)isoindolin-1-one]: the IC50 in assay [1] was no more than 1 µM; in assay [2], 0.301 to 1 µM.
In the case of `Cc1cc(C(=O)Nc2cccc(C3(Cc4nncn4C(F)F)COC3)c2)nc(C2CC2)n1` [Example 704, 2-cyclopropyl-N-(3-(3-((4-(difluoromethyl)-4H-1,2,4-triazol-3-yl)methyl)-oxetan-3-yl)phenyl)-6-methylpyrimidine-4-carboxamide], the IC50 in assay [1] is no more than 0.1 µM; in assay [2], less than 0.1 µM.
The matching figures for `Cn1cnnc1CC1(c2cccc(N3Cc4c(cc(CN5CCc6cc(C#N)ccc6C5)cc4C(F)(F)F)C3=O)c2)COC1` [Example 706, 2-((2-(3-(3-((4-methyl-4H-1,2,4-triazol-3-yl)methyl)oxetan-3-yl)phenyl)-3-oxo-7-(trifluoromethyl)isoindolin-5-yl)methyl)-1,2,3,4-tetrahydroisoquinoline-6-carbonitrile]: no more than 0.1 µM and less than 0.1 µM.
The matching figures for `Cn1cnnc1CC1(c2cccc(N3Cc4c(cc(CN5CCO[C@H](C(F)(F)F)C5)cc4C(F)(F)F)C3=O)c2)COC1` [Example 707, (S)-2-(3-(3-((4-methyl-4H-1,2,4-triazol-3-yl)methyl)oxetan-3-yl)phenyl)-4-(trifluoromethyl)-6-((2-(trifluoromethyl)morpholino)methyl)isoindolin-1-one]: no more than 0.1 µM and less than 0.1 µM.
`Cn1cnnc1CC1(c2cccc(N3Cc4c(cc(CN5CCc6ncccc6C5)cc4C(F)(F)F)C3=O)c2)COC1` [Example 709, 6-((7,8-dihydro-1,6-naphthyridin-6(5H)-yl)methyl)-2-(3-(3-((4-methyl-4H-1,2,4-triazol-3-yl)methyl)oxetan-3-yl)phenyl)-4-(trifluoromethyl)isoindolin-1-one]: the IC50 is no more than 0.1 µM in assay [1] and less than 0.1 µM in assay [2].
